In patent US10125118B2, “Heteroaryl compounds and their use as therapeutic drugs” (Dong-A Socio Holdings Co., Ltd., priority 2015, dated 2018) one finds GI50 and IC50 data, which are given here for 22 compounds.

Structures are written as SMILES. Where two headings read alike, the source gives them in different places. A value given as a limit tells only on which side of the number the result lay.

Assay [1] concerns CD8-MerTK in Ba/F3-CDM cells. Put plainly: In cell MER kinase assay, Ba/F3-CDM cell proliferation without IL-3 (Celltiter-Glo). Format: cell-based, murine. The conditions noted are these: 48 hours compound treatment, read-out: Cell growth inhibition (GI50). The protocol:
To establish an in cell kinase assay for MerTK kinase, the IL-3 dependent Ba/F3 cells of murine lymphoid origin was transfected with CD8-MerTK. […] For a routine cellular assay, Ba/F3-CDM cells were seeded at 2,000 cells per well in 384-well cell culture plate containing DMEM/10% FBS culture media and incubated for 24 hours before addition of compounds pre-diluted in culture media. Following compound treatment, cells were further incubated for 48 hours and the proliferation was measured. To discriminate a Ba/F3 growth inhibition by a specific inhibition of MerTK kinase following compound treatment vs growth inhibition due to a non-specific unintended cytotoxicity of compounds, we routinely carried out control sets of Ba/F3 cells in parallel that grown in IL3-supplemented growth media. In the presence of IL-3, the proliferation of Ba/F3 is no longer dependent on the MerTK activity. Cell growth and proliferation was measured with Celltiter-Glo™ system (Promega, USA) according to the manufacturer's instruction. The half-maximal growth inhibitory concentration (GI50) value was calculated with Prism6.0 software (GraphPad, USA).
Background: Cellular ATP, detected with luciferase, serves as a proxy for viable cell number.

In assay [2] the target is human c-MER catalytic domain (Homo sapiens (Human), UniProt Q12866). Description: LanthaScreen TR-FRET kinase assay, c-MER. (Time-resolved FRET reads energy transfer from a long-lived donor to a nearby acceptor.)
Chain of human c-MER catalytic domain (Q12866 587-858): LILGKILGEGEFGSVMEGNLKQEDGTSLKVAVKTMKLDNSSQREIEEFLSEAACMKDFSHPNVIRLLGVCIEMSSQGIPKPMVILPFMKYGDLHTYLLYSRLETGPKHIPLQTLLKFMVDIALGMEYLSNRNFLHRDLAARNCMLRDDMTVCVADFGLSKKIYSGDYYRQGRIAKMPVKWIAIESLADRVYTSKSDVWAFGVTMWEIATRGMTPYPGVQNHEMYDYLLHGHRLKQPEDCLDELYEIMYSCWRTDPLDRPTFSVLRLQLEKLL
Where [3] appears, read: read-out: Mer TK inhibition (IC50), Biochemical IC50, TR-FRET, 10 uM ATP.

One may read the GI50 as the concentration at which growth is held to half of that of the control. The IC50 is the concentration at which inhibition is half-maximal. Consider `CC(c1ccc(-c2ccc(CO[C@H]3CCC[C@@H]3NC(=O)c3cc(-c4ccc(F)nc4)cnc3N)cc2)cc1)N1CCN(CCO)CC1` (stereo partly drawn) [Example 237, 6-amino-6′-fluoro-N-((1S,2S)-2-((4′-(1-(4-(2-hydroxyethyl)-piperazin-1-yl)ethyl)-[1,1′-biphenyl]-4-yl)methoxy)cyclopentyl)-[3,3′-bipyridine]-5-carboxamide], for which the GI50 in assay [1] was < 100 nM. In addition, the 50% inhibitory concentration (IC50) in assay [2] (setting [3]) is < 10 nM.
As for `Cc1ccc(CO[C@H]2CCC[C@@H]2NC(=O)c2cc(-c3ccc(CN4CCC(O)CC4)cc3)cnc2N)cc1C` [Example 328, 2-amino-N-((1S,2S)-2-((3,4-dimethylbenzyl)oxy)cyclopentyl)-5-(4-((4-hydroxypiperidin-1-yl)methyl)phenyl)nicotinamide], the GI50 in assay [1] is 500 to 1000 nM. In addition, the IC50 in assay [2] (setting [3]) was < 10 nM.
The matching figures for `Nc1ncc(-c2ccc(F)nc2)cc1C(=O)N[C@H]1CCC[C@@H]1OCc1ccc(-c2ccc(C3(N4CCN(CCO)CC4)CC3)cc2)cc1` [Example 228]: 100 to 500 nM and < 10 nM.
The matching figures for `Cn1cc(-c2cnc(N)c(C(=O)N[C@H]3CCC[C@@H]3OCc3ccc(-c4ccc(CN5CCN(C6CC6)CC5)cc4)cc3)c2)cn1` [Example 184, 2-amino-N-((1S,2S)-2-((4′-((4-cyclopropylpiperazin-1-yl)methyl)-[1,1′-biphenyl]-4-yl)methoxy)cyclopentyl)-5-(1-methyl-1H-pyrazol-4-yl)nicotinamide]: < 100 nM and < 10 nM.
As for `CN1CCN(Cc2ccc(-c3ccc(CO[C@H]4CCC[C@@H]4NC(=O)c4cc(-c5ccc(F)nc5)cnc4N)cc3)cc2)CC1` [Example 386, 6-amino-6′-fluoro-N-((1S,2S)-2-((4′-((4-methylpiperazin-1-yl)methyl)-[1,1′-biphenyl]-4-yl)methoxy)cyclopentyl)-[3,3′-bipyridine]-5-carboxamide], the 50% growth inhibitory concentration (GI50) in assay [1] was < 100 nM. The IC50 in assay [2] (setting [3]) is < 10 nM.
Take `CC(c1ccc(-c2ccc(CO[C@H]3CCC[C@@H]3NC(=O)c3cc(-c4cnn(C)c4)cnc3N)cc2)cc1)N1C[C@@H](C)N(C)[C@@H](C)C1` (stereo partly drawn) [Example 209, 2-amino-5-(1-methyl-1H-pyrazol-4-yl)-N-((1S,2S)-2-((4′-(1-((3S,5R)-3,4,5-trimethylpiperazin-1-yl)ethyl)-[1,1′-biphenyl]-4-yl)methoxy)-cyclopentyl)nicotinamide]: in assay [1], the GI50 was < 100 nM. Further, the 50% inhibitory concentration (IC50) in assay [2] (setting [3]) is < 10 nM.
The matching figures for `CC(c1ccc(-c2ccc(CO[C@H]3CCC[C@@H]3NC(=O)c3cc(C#N)cnc3N)cc2)cc1)N1CCN(C)CC1` (stereo partly drawn) [Example 233, 2-amino-5-cyano-N-((1S,2S)-2-((4′-(1-(4-methylpiperazin-1-yl)-ethyl)-[1,1′-biphenyl]-4-yl)methoxy)cyclopentyl)nicotinamide]: 100 to 500 nM and < 10 nM.
As for `Cc1ccc(CO[C@H]2CCC[C@@H]2NC(=O)c2cc(-c3ccc(CN4CCC(N5CCOCC5)C4)cc3)cnc2N)cc1C` (stereo partly drawn) [Example 337, 2-amino-N-((1S,2S)-2-((3,4-dimethylbenzyl)oxy)cyclopentyl)-5-(4-((3-morpholinopyrrolidin-1-yl)methyl)phenyl)nicotinamide], the GI50 in assay [1] was in the range of 500 to 1000 nM. In addition, the IC50 in assay [2] (setting [3]) is < 10 nM.
Take `CCc1cc(CO[C@H]2CNC[C@@H]2NC(=O)c2cc(-c3ccc(NS(C)(=O)=O)cc3)cnc2N)ccc1C` [Example 401, 2-amino-N-((3S,4S)-4-((3-ethyl-4-methylbenzyl)oxy)pyrrolidin-3-yl)-5-(4-(methylsulfonamido)phenyl)nicotinamide]: the 50% growth inhibitory concentration (GI50) in assay [1] is > 1000 nM. In addition, the IC50 in assay [2] (setting [3]) was < 10 nM.
Regarding `Cn1cc(-c2cnc(N)c(C(=O)N[C@H]3CCC[C@@H]3OCc3ccc(-c4ccc(CN5CCN(CC(C)(C)O)CC5)cc4)cc3)c2)cn1` [Example 182, 2-amino-N-((1S,2S)-2-((4′-((4-(2-hydroxy-2-methylpropyl)-piperazin-1-yl)methyl)-[1,1′-biphenyl]-4-yl)methoxy)cyclopentyl)-5-(1-methyl-1H-pyrazol-4-yl)nicotinamide], the GI50 in assay [1] was < 100 nM. For the same compound, the IC50 in assay [2] (setting [3]) was < 10 nM.
The matching figures for `C[C@@H](c1ccc(-c2ccc(CO[C@H]3CCC[C@@H]3NC(=O)c3cc(-c4ccc(F)nc4)cnc3N)cc2)cc1)N1CCN(C)CC1` [Example 222, 6-amino-6′-fluoro-N-((1S,2S)-2-((4′-((S)-1-(4-methylpiperazin-1-yl)ethyl)-[1,1′-biphenyl]-4-yl)methoxy)cyclopentyl)-[3,3′-bipyridine]-5-carboxamide]: < 100 nM and < 10 nM.
The matching figures for `CN1CCN(Cc2ccc(-c3ccc(CO[C@H]4CCC[C@@H]4NC(=O)c4cc(-c5cccnc5)cnc4N)cc3)cc2)CC1` [Example 375, 6-amino-N-((1S,2S)-2-((4′-((4-methylpiperazin-1-yl)methyl)-[1,1′-biphenyl]-4-yl)methoxy)cyclopentyl)-[3,3′-bipyridine]-5-carboxamide]: < 100 nM and < 10 nM.
The corresponding values for `Cc1ccc(CO[C@H]2CCC[C@@H]2NC(=O)c2cc(-c3ccc(C(=O)NC4CCN(C)CC4)cc3)cnc2N)cc1C` [Example 318, 2-amino-N-((1S,2S)-2-((3,4-dimethylbenzyl)oxy)cyclopentyl)-5-(4-((1-methylpiperidin-4-yl)carbamoyl)phenyl)nicotinamide] are 500 to 1000 nM and < 10 nM.
Consider `C[C@@H]1CN(Cc2ccc(-c3ccc(CO[C@H]4CCC[C@@H]4NC(=O)c4cc(-c5cnn(C)c5)cnc4N)cc3)cc2)C[C@H](C)N1` [Example 189, 2-amino-N-((1S,2S)-2-((4′-((cis-3,5-dimethylpiperazin-1-yl)-methyl)-[1,1′-biphenyl]-4-yl)methoxy)cyclopentyl)-5-(1-methyl-1H-pyrazol-4-yl)-nicotinamide], for which, in assay [1], the GI50 was in the range of 100 to 500 nM. Moreover, in assay [2] (setting [3]), the half-maximal inhibitory concentration (IC50) is < 10 nM.
On to `CN1CCN(Cc2ccc(-c3ccc(CO[C@H]4CCC[C@@H]4NC(=O)c4cc(-c5ccc(CO)cc5)cnc4N)cc3)cc2)CC1` [Example 369, 2-amino-5-(4-(hydroxymethyl)phenyl)-N-((1S,2S)-2-((4′-((4-methylpiperazin-1-yl)methyl)-[1,1′-biphenyl]-4-yl)methoxy)cyclopentyl)nicotinamide], for which the GI50 in assay [1] was < 100 nM. Besides, the IC50 in assay [2] (setting [3]) was < 10 nM.
On to `C[C@@H]1CN(Cc2ccc(-c3ccc(CO[C@H]4CCC[C@@H]4NC(=O)c4cc(-c5cnn(C)c5)cnc4N)cc3)cc2)CCN1` [Example 185, 2-amino-5-(1-methyl-1H-pyrazol-4-yl)-N-((1S,2S)-2-((4′-(((R)-3-methylpiperazin-1-yl)methyl)-[1,1′-biphenyl]-4-yl)methoxy)cyclopentyl)nicotinamide], for which the 50% growth inhibitory concentration (GI50) in assay [1] lay in the range of 100 to 500 nM. Besides, in assay [2] (setting [3]), the IC50 is < 10 nM.
For the compound `CCc1cc(CO[C@H]2CNC[C@@H]2NC(=O)c2cc(-c3cnn(C)c3)cnc2N)ccc1C` [Example 388, 2-amino-N-((3S,4S)-4-((3-ethyl-4-methylbenzyl)oxy)pyrrolidin-3-yl)-5-(1-methyl-1H-pyrazol-4-yl)nicotinamide], the 50% growth inhibitory concentration (GI50) in assay [1] was 100 to 500 nM. Besides, the IC50 in assay [2] was < 10 nM.
As to `CN1CCN(Cc2ccc(-c3ccc(OC[C@H]4CCC[C@@H]4NC(=O)c4cc(-c5cnn(C)c5)cnc4N)cc3)cc2)CC1` [Example 86, 2-amino-5-(1-methyl-1H-pyrazol-4-yl)-N-((1S,2S)-2-(((4′-((4-methylpiperazin-1-yl)methyl)-[1,1′-biphenyl]-4-yl)oxy)methyl)cyclopentyl)nicotinamide], in assay [1], the GI50 lay within 100 to 500 nM. Moreover, the half-maximal inhibitory concentration (IC50) in assay [2] (setting [3]) is < 10 nM.
Take `Cc1ccc(CO[C@H]2CNC[C@@H]2NC(=O)c2cc(-c3cnn(C)c3)cnc2N)cc1` [Example 415, 2-amino-5-(1-methyl-1H-pyrazol-4-yl)-N-((3S,4S)-4-((4-methylbenzyl)oxy)pyrrolidin-3-yl)nicotinamide]: the 50% growth inhibitory concentration (GI50) in assay [1] is > 1000 nM. Moreover, the IC50 in assay [2] (setting [3]) is < 10 nM.
With `CCc1cc(CO[C@H]2CN(C)C[C@@H]2NC(=O)c2cc(-c3cnn(C)c3)cnc2N)ccc1C` [Example 426, 2-amino-N-((3S,4S)-4-((3-ethyl-4-methylbenzyl)oxy)-1-methylpyrrolidin-3-yl)-5-(1-methyl-1H-pyrazol-4-yl)nicotinamide], the GI50 in assay [1] fell in the range of 500 to 1000 nM. For the same compound, the IC50 in assay [2] (setting [3]) is < 10 nM.
Take `CC(c1ccc(-c2ccc(CO[C@H]3CN(C)C[C@@H]3NC(=O)c3cc(-c4cnn(C)c4)cnc3N)cc2)cc1)N1CCN(C)CC1` (stereo partly drawn) [Example 439, 2-amino-5-(1-methyl-1H-pyrazol-4-yl)-N-((3S,4S)-1-methyl-4-((4′-(1-(4-methylpiperazin-1-yl)ethyl)-[1,1′-biphenyl]-4-yl)methoxy)pyrrolidin-3-yl)-nicotinamide]: in assay [1], the GI50 is 100 to 500 nM. Besides, in assay [2] (setting [3]), the half-maximal inhibitory concentration (IC50) was < 10 nM.
On to `Cn1cc(-c2cnc(N)c(C(=O)N[C@H]3CCC[C@@H]3OCc3ccc(-c4ccc(CN5CCN(CCO)CC5)cc4)cc3)c2)cn1` [Example 181, 2-amino-N-((1S,2S)-2-((4′-((4-(2-hydroxyethyl)piperazin-1-yl)-methyl)-[1,1′-biphenyl]-4-yl)methoxy)cyclopentyl)-5-(1-methyl-1H-pyrazol-4-yl)-nicotinamide], for which the 50% growth inhibitory concentration (GI50) in assay [1] is < 100 nM. In assay [2] (setting [3]), the IC50 was < 10 nM.
